Two compounds from ChEMBL document CHEMBL4800726, “Data for DCP probe MSC-4381” (2021) can be followed below.

Assay [1] deals with T1, 5-hydroxytryptamine receptor 6 (Homo sapiens, UniProt P50406). The experiment in a line: GPCRScan assay: inhibition of 5-HT6. More on the design: radioligand conc. used [nm] 2.0 – 4.0, parental cells stable HEK.
The target of assay [2] is 5-hydroxytryptamine receptor 1E (Homo sapiens, UniProt P28566). The experiment in a line: GPCRScan assay: inhibition of 5-HT1E. Also on record: radioligand conc. used [nm] 2.1 – 5.0, parental cells stable HEK.
In assay [3] the target is Adenosine receptor A1 (Homo sapiens) (UniProt P30542). Description: A1 (h) Eurofins-Cerep binding assay. The following applies: filed as antagonist, Compound concentration 10.0 uM. More on the design: ligand concentration 1 nM.
For assay [4], the target named is GABA-A receptor; anion channel (Rattus norvegicus) (UniProt O09028+P15431+P18506+P18508+P19969+P20236+P23574+P23576+P28471+P28473+P30191+P62813+P63079+P63138+Q91ZM7+Q9ES14). Description: BZD (central) Eurofins-Cerep binding assay. Format: protein-complex assay. More on the design: ligand concentration 0.4 nM. The following applies: filed as agonist, Compound concentration 10.0 uM.

For assay [5], the target named is C-X-C chemokine receptor type 2 (Homo sapiens) (UniProt P25025). The experiment in a line: CXCR2 (IL-8B) (h) Eurofins-Cerep binding assay. The following applies: filed as agonist, Compound concentration 10.0 uM. More on the design: ligand concentration 0.025 nM.
The target of assay [6] is Neuromedin-K receptor (Homo sapiens) (UniProt P29371). Description: NK3 (h) Eurofins-Cerep binding assay. More on the design: ligand concentration 0.4 nM. The following applies: filed as antagonist, Compound concentration 10.0 uM.
The target of assay [7] is T1, 5-hydroxytryptamine receptor 6. Description: 5-HT6 (h) Eurofins-Cerep binding assay. The following applies: filed as agonist, Compound concentration 10.0 uM. More on the design: ligand concentration 2 nM.
Assay [8] concerns the target D(1B) dopamine receptor (Homo sapiens) (UniProt P21918). As to conditions: Compound concentration 10.0 uM.

T1 sequence (P50406 whole entry): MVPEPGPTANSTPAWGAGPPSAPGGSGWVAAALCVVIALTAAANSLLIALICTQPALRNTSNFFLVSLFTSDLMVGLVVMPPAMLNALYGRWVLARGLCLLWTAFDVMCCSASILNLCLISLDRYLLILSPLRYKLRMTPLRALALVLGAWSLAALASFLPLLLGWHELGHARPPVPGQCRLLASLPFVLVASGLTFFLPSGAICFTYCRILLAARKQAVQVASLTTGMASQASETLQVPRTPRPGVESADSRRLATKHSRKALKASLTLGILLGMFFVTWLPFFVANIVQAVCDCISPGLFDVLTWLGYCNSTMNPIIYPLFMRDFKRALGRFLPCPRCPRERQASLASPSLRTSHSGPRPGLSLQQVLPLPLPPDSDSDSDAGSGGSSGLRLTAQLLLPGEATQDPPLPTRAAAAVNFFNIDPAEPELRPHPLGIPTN
Sequence of 5-hydroxytryptamine receptor 1E (P28566 whole entry): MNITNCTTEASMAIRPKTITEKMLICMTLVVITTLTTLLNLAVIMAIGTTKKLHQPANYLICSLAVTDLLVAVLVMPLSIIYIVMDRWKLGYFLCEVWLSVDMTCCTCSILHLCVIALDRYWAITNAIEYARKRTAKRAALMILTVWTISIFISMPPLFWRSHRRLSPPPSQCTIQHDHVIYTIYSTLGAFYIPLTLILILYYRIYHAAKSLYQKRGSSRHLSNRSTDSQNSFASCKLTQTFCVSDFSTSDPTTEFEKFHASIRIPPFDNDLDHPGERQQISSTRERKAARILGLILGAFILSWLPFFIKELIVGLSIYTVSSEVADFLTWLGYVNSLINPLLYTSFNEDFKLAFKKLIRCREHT
Sequence of Neuromedin-K receptor (Homo sapiens) (P29371 whole entry): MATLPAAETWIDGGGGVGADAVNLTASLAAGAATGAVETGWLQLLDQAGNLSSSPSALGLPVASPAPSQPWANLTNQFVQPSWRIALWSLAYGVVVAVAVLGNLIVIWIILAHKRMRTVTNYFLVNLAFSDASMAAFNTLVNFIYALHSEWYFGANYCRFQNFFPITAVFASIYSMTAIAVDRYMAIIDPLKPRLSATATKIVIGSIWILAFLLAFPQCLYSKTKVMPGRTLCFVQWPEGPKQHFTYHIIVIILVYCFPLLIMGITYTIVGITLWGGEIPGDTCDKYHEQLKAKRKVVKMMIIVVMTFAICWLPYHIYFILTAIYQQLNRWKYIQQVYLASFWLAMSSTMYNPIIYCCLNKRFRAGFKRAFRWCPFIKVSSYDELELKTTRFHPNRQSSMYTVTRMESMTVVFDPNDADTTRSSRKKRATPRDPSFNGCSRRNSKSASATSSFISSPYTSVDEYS
Sequence of C-X-C chemokine receptor type 2 (Homo sapiens) (P25025 whole entry): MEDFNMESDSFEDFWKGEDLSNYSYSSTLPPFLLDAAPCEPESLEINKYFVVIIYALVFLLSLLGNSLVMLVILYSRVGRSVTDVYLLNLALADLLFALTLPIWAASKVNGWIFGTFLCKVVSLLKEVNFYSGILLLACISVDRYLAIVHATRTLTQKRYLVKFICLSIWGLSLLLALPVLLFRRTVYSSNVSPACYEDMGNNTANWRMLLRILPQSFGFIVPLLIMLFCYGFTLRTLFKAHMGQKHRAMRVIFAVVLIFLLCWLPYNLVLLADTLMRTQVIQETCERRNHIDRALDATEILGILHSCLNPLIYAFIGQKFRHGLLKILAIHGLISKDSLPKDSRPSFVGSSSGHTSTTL
Sequence of Adenosine receptor A1 (Homo sapiens) (P30542 whole entry): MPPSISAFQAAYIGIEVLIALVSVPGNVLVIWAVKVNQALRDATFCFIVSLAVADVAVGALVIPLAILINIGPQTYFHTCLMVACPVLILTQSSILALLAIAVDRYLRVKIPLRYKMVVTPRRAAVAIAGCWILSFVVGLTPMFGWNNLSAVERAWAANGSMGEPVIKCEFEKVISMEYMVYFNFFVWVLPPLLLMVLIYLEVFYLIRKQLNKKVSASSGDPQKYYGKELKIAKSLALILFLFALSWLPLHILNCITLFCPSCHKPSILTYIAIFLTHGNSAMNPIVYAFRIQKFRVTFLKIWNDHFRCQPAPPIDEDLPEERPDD
Sequence of D(1B) dopamine receptor (Homo sapiens) (P21918 whole entry): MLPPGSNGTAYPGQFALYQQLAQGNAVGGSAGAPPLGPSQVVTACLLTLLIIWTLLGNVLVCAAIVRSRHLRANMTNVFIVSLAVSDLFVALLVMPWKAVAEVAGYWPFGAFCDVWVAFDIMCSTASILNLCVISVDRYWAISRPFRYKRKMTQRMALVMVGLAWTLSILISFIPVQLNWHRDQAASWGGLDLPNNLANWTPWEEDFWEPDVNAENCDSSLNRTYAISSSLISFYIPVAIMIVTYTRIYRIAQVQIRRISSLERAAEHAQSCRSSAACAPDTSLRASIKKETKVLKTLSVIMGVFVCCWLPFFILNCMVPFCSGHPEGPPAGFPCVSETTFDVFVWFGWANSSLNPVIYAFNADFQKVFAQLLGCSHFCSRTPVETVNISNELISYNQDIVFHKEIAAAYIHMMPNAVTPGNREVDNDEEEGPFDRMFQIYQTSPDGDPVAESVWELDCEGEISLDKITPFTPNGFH

Turning to `COc1cc(C(=O)O)ncc1C#Cc1ccccc1NS(=O)(=O)c1cccc2c(N(C)C)ccnc12` [MSC-0516], the Ki in assay [1] (read-out: Ki) is 1520 nM; in assay [1] (read-out: pKi (converted)), 1450 nM.

Take `CCOc1ccc(S(=O)(=O)Nc2ccc(Cl)cc2C#Cc2cnc(C(=O)O)cc2OC)c2ncccc12` [MSC-4381]: the Ki in assay [2] is greater than 10 µM. Also, the pKi in assay [2] is less than 5. In addition, the % Inhibition of Control Specific Binding (Mean n=2) in assay [3] was 56.2%; in assay [4], -7.6%; in assay [5] it was 7.3%; in assay [6] it was -8.7%; in assay [7], 32%. In addition, in assay [8], the inhibition was 47.7%.

As a reminder, the pKi is −log10 of the Ki, conventionally taken in molar units. By inhibition is commonly meant the share of the control response that was lost under treatment.
